Assay results: patent US20210205238A1, “STABILIZED INJECTABLE PHARMACEUTICAL COMPOSITION OF L-EPINEPHRINE” (MERCK PATENT GMBH, priority 2017, published 2021)
Structures can show the parent of a compound that is named as a salt. Each block holds one molecule with its values, some of them ahead of it.

Experiments:
[1] = sulfonic acid derivative formed by reaction of epinephrine with sodium bisulfite; cited from earlier work
[2] = senior formulations 1.1 mg/mL, E:S 0.34, pH 3.9, 60° C., 28 days; vs epinephrine base
[3] = HPIC for determination of sodium metabisulfite as sulfite in stored formulations; assay type: physicochemical; conditions: after 28 days at 60° C., senior formulation 1.1 mg/mL
Procedure: Epinephrine formulations were diluted 1:100 (formulations with 1.67 mg/mL Na2S2O5), 1:50 (formulations with 0.95 mg/mL and 0.48 mg/mL Na2S2O5) and 1:25 (formulation with 0.16 mg/mL Na2S2O5) in water containing 0.37% formaldehyde. Chromatographic separation was conducted on a Dionex Ion chromatograph ICS3000. 50 μl sample were applied on a HPIC column (AS4aSC, 4 mm×250 mm Thermo Scientific) using a guard column (AG4aSC, 4 mm×50 mm Thermo Scientific). Chromatographic separation was conducted in Eluent A (1.3 mM sodium hydrogen carbonate and 1.4 mM sodium carbonate in water) at 30° C. over 20 min at a flow rate of 2 mL/min. Conductivity detection with suppressor technology was used at a cell temperature of 35° C.

SMILES: CNCC(c1ccc(O)c(O)c1)S(=O)(=O)O (stereo not shown) [ESA, epinephrine sulfonic acid]
biological activity [1]: biologically inactive

D-enantiomer formation [2]: significantly reduced
SMILES: CNC[C@H](O)c1ccc(O)c(O)c1 [epinephrine tartrate]

sodium metabisulfite starting content degraded ([3]; at E:S=1.2): > 70% | sodium metabisulfite starting content degraded ([3]; at E:S=3): > 90%
SMILES: O=S([O-])S(=O)(=O)[O-].[Na+].[Na+] [sodium metabisulfite]
